According to patent US7893266B2, “Detection of cancer cells in vitro using sigma-2 receptor ligands as radiotracers” (Washington University, priority 2003, dated 2011):
Read-outs that look alike come from different tables or passages of the source.

Test: Biodistribution in EMT-6 BALB/C mice
Format: in vivo
Conditions: Balb/c, mouse, intravenous
[1] = kidney, read-out: % ID per gram kidney
[2] = liver, read-out: % ID per gram liver
[3] = spleen, read-out: % ID per gram spleen

tissue uptake at 2 h [1]: 1.85 ± 0.54 %ID/g | tissue uptake at 4 h [1]: 0.57 ± 0.12 %ID/g | tissue uptake at 2 h [2]: 1.67 ± 0.1 %ID/g | tissue uptake at 4 h [2]: 0.71 ± 0.08 %ID/g | tissue uptake at 4 h (lung, read-out: % ID per gram lung): 0.29 ± 0.03 %ID/g | tissue uptake at 5 min (spleen, 5 min, read-out: % ID per gram spleen): 12.5 ± 1.46 %ID/g | tissue uptake at 30 min (spleen, 30 min, read-out: % ID per gram spleen): 6.91 ± 1.22 %ID/g | tissue uptake at 1 h (spleen, 1 hour, read-out: % ID per gram spleen): 2.61 ± 0.62 %ID/g | tissue uptake at 2 h [3]: 0.6 ± 0.03 %ID/g | tissue uptake at 4 h [3]: 0.2 ± 0.03 %ID/g
SMILES: COc1cc2c(cc1OC)CN(CCCCNC(=O)c1cc([76Br])cc(OC)c1OC)CC2 [[^76Br]6]
